The test system of one test is PKCδ-GFP fusion protein. The test is described as follows: PKCδ-GFP translocation assay in living CHO-k1 cells (confocal microscopy). It counts as cell-based, Chinese hamster. The settings on record: for concentration* (minimum effective concentration required to induce translocation of PKC-GFP to the membrane) / % Translocation: CHO-k1 cells; for % Translocation: maximum translocation of PKCδ-GFP to the plasma membrane at the concentration printed in the same cell, SUW212: only brief translocation observed. The procedure: (§1) Because a prerequisite for PKC pathway involvement is binding to PKC, compounds were initially evaluated for PKC affinity in a cell-free competitive binding assay with tritiated phorbol dibutyrate ([^3H]-PDBu). Assays were performed with representative members of both the conventional (PKCα) and novel (PKCδ) PKC families. Subsequently, compounds were assayed for PKC activation in living cells using an isoform translocation assay.
Chinese hamster ovary factor K1 (CHO-k1, ATCC) cells were cultured in F-12 Kaighn's media (Hyclone, 10% fetal bovine serum, 1% penicillin/streptomycin added, referred to as F-12+/+ below) at 37° C. in an incubator (5% CO2). Cell cultures were maintained by splitting cells 1:3 when they reached ˜75-100% confluence (every 2-3 days) as follows:
1 mL of the cell suspension was then added to 9 mL of fresh F-12+/+ and the sample was sub-cultured until reaching confluence (˜2-3 days).
Cells were counted using a Countess II Automated Cell Counter (Fisher). The cell suspension was diluted to 240,000 cells/mL with fresh F-12+/+ and 2.5 mL of this diluted stock was added to one well in a 6-well plate. The cells were then cultured for 24 hours.
F-12+/+ was aspirated and cells were washed with F-12−/−. 2 mL of fresh F-12−/− was then added to each well, taking care not to disturb adherent cells. For each well of CHO-k1 cells, 12.5 μL Lipofectamine 2000 reagent (Invitrogen) was added to 250 μL Opti-MEM reduced serum media (Invitrogen) in a polypropylene tube and incubated for 20 minutes at RT. Meanwhile, for each well, 4 μg of PKCδ-GFP pDNA and 250 μL Opti-MEM reduced serum media was added to a separate polypropylene tube. 250 μL of the Lipofectamine 2000 suspension was added to the DNA suspension and the solution incubated for 30 minutes at RT. 500 μL of the Lipofectamine/DNA suspension was added to the respective wells of the 6-well plate. The cells were then incubated at 37° C. (5% CO2) for ˜24 hrs.
F-12+/+ was aspirated and cells were washed with F-12−/−. 2.4 mL of fresh F-12−/− was then added to each well, taking care not to disturb adherent cells. A 4 μg aliquot of PKCδ-GFP pDNA was added to PBS (pH 5.5, final volume 100 μL). 5.6 μL of DA 13:11 (2 mM stock in DMSO) was then added to the DNA solution, and the mixture was gently mixed (by flicking) for 20 seconds, at which point it was added directly to the respective wells of the 6-well plate. The cells were then incubated at 37° C. (5% C02) for ˜24 hrs.
After incubation, the media was aspirated and cells were washed with PBS (2.0 mL) and trypsinized (500 μL). The cell suspension was then diluted with 2.0 mL F-12+/+. 200 μL aliquots were added to 3 wells of a Lab-Tek II 4-well chambered coverglass slide (Fisher), producing 4 slides in total, each with three wells of cells. The cell suspension was directly diluted with 600 μL of additional F-12+/+. The resulting samples were incubated for ˜24 hrs. prior to imaging.
Fluorescent images were obtained using a Leica SP8 White Light Confocal microscope and the Leica AF software package. Prior to analysis, media was aspirated and 800 μL of PBS (Hyclone, without Ca^2+ or Mg^2+) supplemented with glucose (10 mM) was added to each well of the chambered coverglass slide. Bryostatin and bryostatin analogs were diluted to the appropriate concentration in 200 μL of 10 mM glucose in PBS. Cells were located for imaging and data was recorded for three wells in parallel, imaging at predetermined positions in each well using adaptive focus control. Cells were imaged at 30 second intervals following the addition of compound (set to t=0) for 20-40 minutes. Data were recorded at room temperature. Images were exported as .lif files and fluorescence intensity was analyzed using FIJI (NIH) software.

Test [1] concerns CD22 surface expression in NALM6 cells. The test is described as follows: CD22 surface expression assay by flow cytometry. It counts as cell-based, human. As to conditions: Homo sapiens, NALM-6; At 1 nM, relative to DMSO control; NALM6 cells; read-out: Fold increase CD22 expression. The procedure:
Cell cultures were maintained between 4×10^5 and 3×10^6 cells/mL according to vendor instructions.
Cell suspension from a confluent T75 flask (Fisher) was transferred to a 15 mL falcon tube and centrifuged at 1100 rpm for 7 minutes. […] Cells were counted using a Countess II Automated Cell Counter (Fisher). […] 199 μL of this stock was added to 24 wells (enough for triplicate measurements for 8 different experimental conditions) in a 96-well plate. […] 1 μL of DMSO or the appropriate stock solution of compound in DMSO was added to each well. Cells were incubated for 24 hours, at which point the cell suspensions were transferred to 1.5 mL Eppendorf tubes and diluted with 1.0 mL of PBS (Hyclone, without Ca^2+ or Mg^2+). Samples were centrifuged at 2000 rpm for 5 min at RT. […] Cells were sub-cultured between 2×10^5 and 3×10^6 cells/mL in 24-well plates for an additional 24 hrs-7 days, at which point CD22 surface expression was assayed by flow cytometry.
Cells from one well were counted using a Countess II Automated Cell Counter (Fisher). ˜200,000-300,000 cells from each well were added to 1.5 mL Eppendorf tubes containing PBS (final volume ˜1.2 mL). The cell suspensions were centrifuged at 1500 rpm for 7 minutes at 4° C. The supernatant was aspirated, and the cell pellet was resuspended in 99 μL of pre-chilled FACS buffer (0.5% w/v BSA in PBS). […] Samples were then diluted with an additional 1.0 mL of FACS buffer and centrifuged at 1500 rpm for 7 minutes at 4° C. […] Cells were stained with DAPI and CD22 surface expression was analyzed using the FACScan Analyzer at the Stanford Shared FACS Facility. Data analysis was performed using FlowJo and Microsoft Excel.
In general terms: A flow cytometer gives signals particle by particle.

The next test addresses T1, PKCα (Homo sapiens, UniProt P17252).
T1 construct: purchased Invitrogen
The test is described as follows: cell-free competitive PKC binding assay with [3H]-phorbol dibutyrate. The settings on record: competition with [3H]-PDBu, recombinant human PKC isoform. The method, then: as §1
(§2) To a 50 mL polypropylene tube was added Tris-HCl (pH 7.4, 1 M, 1 mL), KCl (1 M, 2 mL), CaCl2) (0.1 M, 30 μL), and bovine serum albumin (BSA, 40 mg, Sigma-Aldrich). This mixture was diluted to 20 mL with deionized H2O and mixed gently. The buffer was stored on ice until use.
(§3) For every two assays, 3.5 mg phosphatidylserine (Avanti Polar Lipids, porcine, 25 mg/mL CHCl3 solution) was concentrated by removing chloroform under a stream of nitrogen followed by reduced pressure. The solid PS was suspended as vesicles in freshly prepared PKC binding assay buffer (3.5 mL) by sonicating six times for 30 sec, with a 30 sec rest between sonications (Branson Sonifier 250, power=2, 50% duty cycle). The resulting milky cloudy mixture (1 mg/mL) was stored on ice until use.
(§4) Assay PKC was prepared by dissolving a 4 μg aliquot of the indicated recombinant human PKC isoform (Invitrogen) into 11.6 mL of PKC binding assay buffer (this amount is sufficient for two assays). The diluted PKC was stored on ice for immediate use.
(§5) ^3H-PDBu (American Radiolabeled Chemicals, Inc.; 1 mCi/mL acetone solution; specific activity: 20 Ci/mmol) was diluted […] with DMSO. The resulting 500 nM stock solution was further diluted with DMSO to 30 nM.
(§6) Compound dilutions were prepared by serially diluting from a chosen “high” concentration by factors of 3 or 4.
(§7) To a polypropylene tube was added 3.3 mL of 1 mg/mL PS vesicles solution, 11 mL of PKC isoform solution, and 1.1 mL of 30 nM ^3H-PDBu solution were added. The resulting solution was vortexed to mix and stored on ice.
(§8) Materials: • Glass-fiber filters (Whatman GF/B) were prepared by soaking them in a solution of aqueous polyethyleneimine (10% by vol, 18 mL) in deionized water (600 mL) for ≥1 h. • 500 mL “rinsing buffer” of 20 mM Tris, pH 7.4 was cooled on ice for the duration of the incubation period and for the remainder of the assay.
Triplicate data points were obtained for each analog concentration. For each data point, 280 μL of “Master Mix” Solution and 20 μL of analog compound at a specified concentration were added to a polypropylene tube. […] Maximal ^3H-PDBu binding was assessed in triplicate by substitution of the analog compound with 20 μL DMSO. The solutions were vortexed to mix, incubated at 37° C. for 10 min, and incubated on ice for at least 30 min prior to filtration. Using a Brandel Harvester, the assay contents from each polypropylene tube were vacuum-filtered through polyethylenimine-soaked filters, washing with rinsing buffer (3×) and drying first under vacuum for 5 min and then under ambient conditions for ≥2 h. The resulting filters had circular perforations for each data point, which were removed with forceps and placed in a scintillation vial. Scintillation vials were filled with Bio-Safe II scintillation fluid (5 mL) and measured for radioactivity using a Beckman LS 6000SC scintillation counter. Counts per minute (cpm) were averaged for each triplicate dilution. The data were plotted—cpm vs. log(concentration)—using Prism® by GraphPad Software and an IC50 was determined using that program's built-in one-site competition least squares regression function. Ki values were calculated using the equation: Ki=IC50/(1+([3H−PDBu]/Kd)). The Kd of ^3H-PDBu for PKC isoforms was measured separately via saturation binding experiments under identical conditions.

A further test concerns the target T2, PKCδ (Homo sapiens, UniProt Q05655).
T2 construct: purchased Invitrogen
The test is described as above. As to conditions: competition with [3H]-PDBu, recombinant human PKC isoform. The procedure: as §1, §2, §3, §4, §5, §6, §7, §8
Triplicate data points were obtained for each analog concentration. For each data point, 280 μL of “Master Mix” Solution and 20 μL of analog compound at a specified concentration were added to a polypropylene tube. […] Maximal ^3H-PDBu binding was assessed in triplicate by substitution of the analog compound with 20 μL DMSO. The solutions were vortexed to mix, incubated at 37° C. for 10 min, and incubated on ice for at least 30 min prior to filtration. Using a Brandel Harvester, the assay contents from each polypropylene tube were vacuum-filtered through polyethylenimine-soaked filters, washing with rinsing buffer (3×) and drying first under vacuum for 5 min and then under ambient conditions for ≥2 h. The resulting filters had circular perforations for each data point, which were removed with forceps and placed in a scintillation vial. Scintillation vials were filled with Bio-Safe II scintillation fluid (5 mL) and measured for radioactivity using a Beckman LS 6000SC scintillation counter. Counts per minute (cpm) were averaged for each triplicate dilution. The data were plotted—cpm vs. log(concentration)—using Prism® by GraphPad Software and an IC50 was determined using that program's built-in one-site competition least squares regression function. […] The Kd of ^3H-PDBu for PKC isoforms was measured separately via saturation binding experiments under identical conditions.

Molecules are shown by their SMILES.

In general, Ki refers to a measure of affinity in units of concentration, obtained from inhibition or displacement.

T2 sequence (Q05655 whole entry): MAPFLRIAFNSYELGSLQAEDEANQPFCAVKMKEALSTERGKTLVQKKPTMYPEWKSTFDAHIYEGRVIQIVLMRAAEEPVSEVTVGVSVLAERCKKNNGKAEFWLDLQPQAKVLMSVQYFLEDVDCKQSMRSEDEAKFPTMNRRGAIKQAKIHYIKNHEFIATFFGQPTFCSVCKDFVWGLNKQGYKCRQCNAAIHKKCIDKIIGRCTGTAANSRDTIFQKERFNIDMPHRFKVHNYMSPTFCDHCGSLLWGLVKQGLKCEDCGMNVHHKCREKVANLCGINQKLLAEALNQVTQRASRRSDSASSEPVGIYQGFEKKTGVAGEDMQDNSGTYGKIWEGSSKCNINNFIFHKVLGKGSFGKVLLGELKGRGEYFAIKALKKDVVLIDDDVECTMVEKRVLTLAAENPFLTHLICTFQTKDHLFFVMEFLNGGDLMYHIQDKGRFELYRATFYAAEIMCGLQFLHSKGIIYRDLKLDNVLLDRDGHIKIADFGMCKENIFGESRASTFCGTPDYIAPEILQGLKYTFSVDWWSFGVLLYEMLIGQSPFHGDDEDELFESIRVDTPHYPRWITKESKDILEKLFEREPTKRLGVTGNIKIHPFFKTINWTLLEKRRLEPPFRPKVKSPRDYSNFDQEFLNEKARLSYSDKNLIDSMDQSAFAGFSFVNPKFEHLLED

On to `C=C1CC2C=CC(C)(C)C3(O)OC(CC(=CC(=O)OC)C3OC(=O)C#CCCCCC)CC(C(C)O)OC(=O)CC(O)CC3CC(OC(C)=O)C(C)(C)C(O)(CC(C1)O2)O3` (stereo not shown) [SUW200], for which, in the test with PKCδ-GFP fusion protein, the “concentration* (minimum effective concentration required to induce translocation of PKC-GFP to the membrane)” value (“concentration*” below) stood at 200 nM and the “% Translocation” value turned out to be 70%. The fold induction at 0.001 µM in test [1] is 1.73.
Consider `CCCCCC#CC(=O)O[C@H]1/C(=C/C(=O)OC)C[C@H]2C[C@H]([C@@H](C)O)OC(=O)C[C@H](O)C[C@@H]3C[C@H](OC(C)=O)C(C)(C)[C@](O)(C[C@@H]4C[C@H](O)C[C@H](/C=C/C(C)(C)[C@]1(O)O2)O4)O3` [SUW204], for which the “cytosolic PKC translocated to the plasma membrane” value with PKCδ-GFP fusion protein (200 nM, at 20 minutes) was about 25%. In the test with PKCδ-GFP fusion protein, the “concentration*” value is 200 nM and the “% Translocation” value is on record as 25%.
As to `CCC/C=C/C=C/C(=O)O[C@H]1/C(=C/C(=O)OC)C[C@H]2C[C@H]([C@@H](C)O)OC(=O)C[C@H](O)C[C@@H]3C[C@H](OC(C)=O)C(C)(C)[C@](O)(C[C@@H]4C[C@H](OC(=O)CN(C)C)C[C@H](/C=C/C(C)(C)[C@]1(O)O2)O4)O3` [SUW211], the results for the Ki on PKCα and on PKCδ were 98 nM and 27 nM, respectively. In the test with PKCδ-GFP fusion protein, the “concentration*” value amounted to 1000 nM. In addition, the “sustained translocation of PKC” value in the test with PKCδ-GFP fusion protein (at up to 1000 nM) is reported as “did not achieve sustained translocation”. The “% Translocation” value in the test with PKCδ-GFP fusion protein came to 20%.
In the case of `CCC/C=C/C=C/C(=O)O[C@H]1/C(=C/C(=O)OC)C[C@H]2C[C@H]([C@@H](C)O)OC(=O)C[C@H](O)C[C@@H]3C[C@H](OC(C)=O)C(C)(C)[C@](O)(C[C@@H]4C/C(=C\C(=O)OCc5ccccc5)C[C@H](/C=C/C(C)(C)[C@]1(O)O2)O4)O3` [SUW220], on PKCα, the Ki amounted to 16 nM. For the same molecule, the Ki at PKCδ came to 15 nM. In addition, in the test on PKCδ-GFP fusion protein, the “concentration*” value was 1000 nM and the “% Translocation” value is listed as 50%.
The matching figures for `C=CCOC(=O)/C=C1\C[C@H]2C[C@]3(O)O[C@H](C[C@@H](O)CC(=O)O[C@@H]([C@@H](C)O)C[C@@H]4C/C(=C\C(=O)OC)[C@H](OC(=O)/C=C/C=C/CCC)[C@@](O)(O4)C(C)(C)/C=C/[C@@H](C1)O2)C[C@H](OC(C)=O)C3(C)C` [SUW230]: 4.2 nM, 9.4 nM, 200 nM and 65%.

Source of the values: patent publication US20220193029A1, “BRYOSTATIN COMPOUNDS FOR ENHANCEMENT OF IMMUNOTHERAPY” (priority 2019, published 2022).
